# In patent EP1970046A1, “Use of purine and purine derivatives for treating hair” (priority 2007, dated 2008):
# Like-named read-outs stand apart in the source and are kept apart here.
# What was measured:
# Format in all cases: cell-based
# HGF = HGF release from organotypic hair follicle cell cultures (ELISA); conditions: organotypische Haarfollikelzellkulturen
# Text: (§1) Hepatocyte Growth Factor (HGF) und Keratinocyte Growth Factor (KGF) sind wichtige Wachstumsfaktoren, die von der dermalen Papille ausgeschüttet werden, um die Proliferation der Haarschaftkeratinozyten, die für die Synthese der Haarkeratine verantwortlich sind, zu steuern. Sie sind außerdem charakteristische Marker für die Anagenphase, in der auch die Keratinsynthese maximal ist. Darüber hinaus ist zu beachten, dass bei der Haaralterung das Proliferationsvermögen der Haarfollikelzellen abnimmt. Die Ausschüttung von HGF sowie KGF kann mit Hilfe von kommerziell erhältlichen ELISA-Kits quantifiziert werden.
# (§2) Dazu werden organotypische Haarfollikelzellkulturn über 72h mit Theophyllin inkubiert und die Konzentration der Wachstumsfaktoren im Medium in beschriebener Weise bestimmt. Tabelle 2: Relative Ausschüttung von HGF und KGF in [%] nach Behandlung des organotypischen Haarfollikelzellkulturen im Vergleich zu unbehandelten Kontrollen.
# hha4 [1] = experiment: cells; conditions: read-out: Haarkeratinexpression hha4 Mittelwert
# Text: (§3) Zur Durchführung der PCR wird zunächst mit Hilfe des RNeasy Mini Kits der Fa. Qiagen die RNA aus ORS-Keratinozyten isoliert und mittels reverser Transkription in cDNA umgeschrieben. Bei der anschließenden PCR Reaktion, die mit Hilfe genspezifischer Primer für die jeweiligen haarrelevanten Gene durchgeführt wird und die der Amplifikation der gesuchten Genabschnitte dient, wird die Bildung der PCR-Produkte online über ein Fluoreszenzsignal detektiert. Das Fluoreszenzsignal ist dabei proportional zur Menge des gebildeten PCR-Produktes. Je stärker die Expression eines bestimmten Gens Ist, desto größer Ist die Menge an gebildetem PCR-Produkt und um so höher ist das Fluoreszenzsignal. Zur Quantifizierung der Genexpression wird die unbehandelte Kontrolle gleich 1 gesetzt und die Expression der zu bestimmenden Gene darauf bezogen (x-fache Expression). Dabei werden Werte, die größer/gleich der 2fachen Expression oder kleiner/gleich der 0.5fachen Expression der unbehandelten Kontrolle sind als signifikant differentiell exprimiert eingestuft. Werte, die größer/gleich der 1,6fachen Expression oder kieiner/gleich der 0.66fachen Expression der unbehandelten Kontrolle sind als tendenziell differentiell exprimiert eingestuft. Die Ergebnisse sind in Tabelle 3 zusammengefasst. Tabelle 3: Haarkeratinexpression nach Behandlung von ORS-Keratinozyten in Zellkulturen im Vergleich zur unbehandelten Kontrolle.
# (§4) Die Aktivierung der Keratinsynthese nach Applikation von Theophyllin wurde zusätzlich mit Hilfe organotypischer Haarfollikelzelikulturen untersucht, in denen verschiedene Zellen des Haarfollikels miteinander interagieren können. Die Untersuchungen erfolgten mit dem in Beispiel 3 erläuterten Verfahren der quantitativen Reverse Transkription Polymerase Kettenreaktion. Die Ergebnisse sind in Tabelle 4 zusammengefasst. Tabelle 4: Haarkeratinexpression nach Behandlung mit Theophyllin in organotpischen Haarfollikelzellkulturen im Vergleich zur unbehandelten Kontrolle.
# hha3 [2] = experiment: cells; conditions: read-out: Haarkeratinexpression hha3 Mittelwert
# Text: as §3, §4
# hhb6 [3] = experiment: cells; conditions: read-out: Haarkeratinexpression hhb6 Mittelwert
# Text: as §3, §4
# hha1 = experiment: cells; conditions: Keratinocyte, read-out: Haarkeratinexpression hha1 Mittelwert
# Experimental: (§5) Zur Bestimmung des Einflusses von Theophyllin auf die Expression von Haarkeratinen wurde die differentielle Genexpression mittels quantitatitiver RT-PCR bestimmt. Nach Anzucht der Keratinozyten der äusseren Wurzelscheide (ORS-Keratinozyten) wurden diese für 3, 6 oder 24 h mit Theophyllin in Konzentration von 1.10 und 100 µM inkubiert.
# as §3
# hha6 = experiment: cells; conditions: Keratinocyte, read-out: Haarkeratinexpression hha6 Mittelwert
# Experimental: as §5, §3
# hha4 [4] = experiment: cells; conditions: Keratinocyte, read-out: Haarkeratinexpression hha4 Mittelwert
# Experimental: as §5, §3
# hha3 [5] = experiment: cells; conditions: Keratinocyte, read-out: Haarkeratinexpression hha3 Mittelwert
# Experimental: as §5, §3
# hhb6 [6] = experiment: cells; conditions: Keratinocyte, read-out: Haarkeratinexpression hhb6 Mittelwert
# Experimental: as §5, §3
# KGF [7] = experiment: KGF release from organotypic hair follicle cell cultures (ELISA); conditions: organotypische Haarfollikelzellkulturen
# Text: as §1, §2
# KGF [8] = experiment: KGF release from dermal papilla cells (ELISA); conditions: dermale Papillenzellen
# Text: Der Keratinozyten Wachstumsfaktor Factor (KGF) Ist ein äußerst wichtiger Regulator des Haars. Bei einer potentiell wachstumsfördernden und das Haar stärkenden Aktivsubstanz kann von einer Steigerung der ins Medium ausgeschütteten Faktoren ausgegangen werden. Die Ausschüttung von KGF kann mit Hilfe von kommerziell erhältlichen ELISA-Kits quantifiziert werden. Dazu wurden die dermalen Papillenzellen über 24 Stunden mit Theophyllin inkubiert und die Konzentration des Wachstumsfaktors im Medium in beschriebener Weise quantifiziert. Tabelle 1: Relative Ausschüttung von KGF in [%] nach Behandlung der dermalen Papillenzellen im Vergleich zur unbehandelten Kontrollen.
smiles,measurement,setting,value
Cn1c(=O)c2[nH]cnc2n(C)c1=O [Theophyllin],activity at 500 µM,"HGF; HGF, 72h, untreated = 100 (14), spread in brackets, read-out: Relative Ausschüttung von HGF Mittelwert",144%
same,Freisetzung des Hepatozyten Wachstumsfaktor (HGF),"HGF; 500 µM, result in words",erhöhte Freisetzung
same,fold induction at 10 µM,hha4 [1]; 6 h,0.91
same,fold induction at 100 µM,hha4 [1]; 6 h,1.56
same,fold induction at 10 µM,hha4 [1]; 24 h,2.08
same,fold induction at 100 µM,hha4 [1]; 24 h,1.88
same,fold induction at 10 µM,hha3 [2]; 6 h,0.76
same,fold induction at 100 µM,hha3 [2]; 6 h,0.76
same,fold induction at 10 µM,hha3 [2]; 24 h,2.27
same,fold induction at 100 µM,hha3 [2]; 24 h,3
same,fold induction at 10 µM,hhb6 [3]; 6 h,1.28
same,fold induction at 100 µM,hhb6 [3]; 6 h,2.06
same,fold induction at 10 µM,hhb6 [3]; 24 h,1.81
same,fold induction at 100 µM,hhb6 [3]; 24 h,1.68
same,fold induction at 1 µM,hha1; 3 h,0.73
same,fold induction at 10 µM,hha1; 3 h,1.18
same,fold induction at 100 µM,hha1; 3 h,1.38
same,fold induction at 1 µM,hha1; 6 h,0.9
same,fold induction at 10 µM,hha1; 6 h,0.92
same,fold induction at 100 µM,hha1; 6 h,1.22
same,fold induction at 1 µM,hha1; 24 h,1.3
same,fold induction at 10 µM,hha1; 24 h,1.4
same,fold induction at 100 µM,hha1; 24 h,2.49
same,fold induction at 1 µM,hha6; 3 h,0.45
same,fold induction at 10 µM,hha6; 3 h,0.59
same,fold induction at 100 µM,hha6; 3 h,0.28
same,fold induction at 1 µM,hha6; 6 h,1.12
same,fold induction at 10 µM,hha6; 6 h,0.42
same,fold induction at 100 µM,hha6; 6 h,0.57
same,fold induction at 1 µM,hha6; 24 h,3.19
same,fold induction at 10 µM,hha6; 24 h,2.14
same,fold induction at 100 µM,hha6; 24 h,1.61
same,fold induction at 1 µM,hha4 [4]; 3 h,0.83
same,fold induction at 10 µM,hha4 [4]; 3 h,1.4
same,fold induction at 100 µM,hha4 [4]; 3 h,2.41
same,fold induction at 1 µM,hha4 [4]; 6 h,0.81
same,fold induction at 10 µM,hha4 [4]; 6 h,0.88
same,fold induction at 100 µM,hha4 [4]; 6 h,1.31
same,fold induction at 1 µM,hha4 [4]; 24 h,1.27
same,fold induction at 10 µM,hha4 [4]; 24 h,1.48
same,fold induction at 100 µM,hha4 [4]; 24 h,2.65
same,fold induction at 1 µM,hha3 [5]; 3 h,0.86
same,fold induction at 10 µM,hha3 [5]; 3 h,1.47
same,fold induction at 100 µM,hha3 [5]; 3 h,2.47
same,fold induction at 1 µM,hha3 [5]; 6 h,0.8
same,fold induction at 10 µM,hha3 [5]; 6 h,0.87
same,fold induction at 100 µM,hha3 [5]; 6 h,1.25
same,fold induction at 1 µM,hha3 [5]; 24 h,1.2
same,fold induction at 10 µM,hha3 [5]; 24 h,1.41
same,fold induction at 100 µM,hha3 [5]; 24 h,2.75
same,fold induction at 1 µM,hhb6 [6]; 3 h,1.09
same,fold induction at 10 µM,hhb6 [6]; 3 h,1.12
same,fold induction at 100 µM,hhb6 [6]; 3 h,1.78
same,fold induction at 1 µM,hhb6 [6]; 6 h,0.8
same,fold induction at 10 µM,hhb6 [6]; 6 h,0.76
same,fold induction at 100 µM,hhb6 [6]; 6 h,1.23
same,fold induction at 1 µM,hhb6 [6]; 24 h,1.34
same,fold induction at 10 µM,hhb6 [6]; 24 h,1.28
same,fold induction at 100 µM,hhb6 [6]; 24 h,1.98
same,Freisetzung von KGF,"KGF [7]; 500 µM, result in words",tendenziell erhöhten Freisetzung
same,activity at 500 µM,"KGF [7]; 72h, untreated = 100 (35), spread in brackets, read-out: Relative Ausschüttung von KGF Mittelwert",144%
same,activity at 1 µM,"KGF [8]; 24 h, 24 Stunden, 1µM, untreated control = 100, read-out: Relative Ausschüttung von KGF Mittelwert",121%
same,activity at 10 µM,"KGF [8]; 24 h, 24 Stunden, 10µM, untreated control = 100, read-out: Relative Ausschüttung von KGF Mittelwert",135%
same,activity at 100 µM,"KGF [8]; 24 h, 24 Stunden, 100µM, untreated control = 100, read-out: Relative Ausschüttung von KGF Mittelwert",161%
same,Freisetzung von KGF,KGF [8]; result in words,signifikant erhöhten Freisetzung
